{"source": "patent US20250295638A1", "about": "“METHODS OF TREATING ALLOGRAFT REJECTION” (Bargent Therapeutics Pty Ltd, priority 2022, published 2025)", "key": {"[1]": {"system": "heparan sulphate in the renal allotransplant", "experiment": "H-scores for heparan sulphate in the renal allotransplant by digital image pathology", "type": "in vivo, rat", "details": "for H-score for heparan sulphate, estimate of difference: day 6 after transplantation", "procedure": "(§1) Left orthotopic renal transplants were performed with a mean anastomosis time of 37±4 minutes using a standard technique (11), which would be well known to the skilled person. The procured kidney was perfused with 2 ml Custodial HTK solution (Chemie GMBH, Alsbach-Hähnlein, Germany) at […]. Transplanted rats were given analgesia (Carprofen 5 mg/kg every 12-24 hours subcutaneously) and a prophylactic antibiotic (Enrofloxacin 5 mg/kg SC 12 hourly) for 3 days. The transplanted kidney and blood were procured on day 6 immediately after euthanasia by CO2 asphyxiation. The kidney and blood were used for measurements of gene expression in intragraft lymphoid cells and peripheral blood mononuclear cells.\n(§2) Groups used in this study are set out in Tables 6 and 7. Comparisons were made between an isograft control treatment group (i.e., a control for ischaemia reperfusion injury), a non-treated allograft group, and Castanospermine-treated allograft group. A primary comparison was made between the non-treated group versus the Castanospermine-treated group. […]\nWhole slide digital images were acquired using an Aperio AT2 (Leica Biosystems, Wetzlar, Germany) at 20× magnification before analysis using the HALO v2.0 software (Indica laboratory, Corrales, New Mexico, USA). After selecting tissue areas, the percentage of total pixels with weak, moderate and strong staining intensity was measured using the ‘Area Quantification V1.0’ algorithm. Histology-score quantitation was calculated for each slide as H-score=(1×weak %)+(2×moderate %)+(3×strong %) providing a range from 0 to 300 (30). 4-6 sections per sample were scored at different levels through the tissue to obtain an average. […]\nThree treatment Groups were studied at day 6 after transplantation. […] H Score quantitation is calculated for each slide as H-score=(1×weak %)+(2×moderate %)+(3×strong %) giving a score ranging from 0 to 300. There were 4-6 slides per kidney sample from one rat scored (each taken at different levels through the tissue) to obtain an average for that rat. […]"}, "[2]": {"system": "heparanase (HPSE) expression in peripheral blood lymphoid cells", "experiment": "Heparanase expression (ddPCR, fractional abundance of cDNA) in peripheral blood lymphoid cells of kidney transplanted rats", "type": "in vivo, rat", "details": "day 6 after transplantation", "procedure": "as §1\n(§3) Studies about gene expression of heparanase were performed on lymphoid cells from transplanted kidney tissue and peripheral blood on day 6 after transplantation. This time frame encompassed the period of maximum rejection at day 6.\nCastanospermine was administered by Alzet osmotic pumps (Alza Corporation, Palo Alto, United States) at an immunosuppressive dose of 150 mg/kg per day. […]\nRNA was manually extracted using the RNeasy Plus Mini Kit as per the manufacturer's instructions (Qiagen, Hilden, Germany). […] The quality of the RNA was measured using the Nanodrop 2000 (ThermoFisher Scientific, MA, USA) and quantified using the Qubit 2.0 Fluorometer (Invitrogen, MA, USA), RNA was stored at […]. […]\nCustom ddPCR assays were designed using the IDT PrimerQuest™ Tool, Prime Time qPCR assay (IDT, Singapore). […] A 25 ul reaction containing, ddPCR SuperMix for Probes (No dUTP) (Bio-Rad, Hercules, CA, USA), a hypoxanthine-guanine phosphoribosyl transferase reference control (HPRT-1) and heparanase target probes (HPSE) (IDT, Singapore). cDNA and water were created for each sample and added to a 96 well plate ready for ddPCR droplet generation. […]\nThe samples were left on the cycler for a minimum of 4 hours at 4° C. The droplets were then read on the QX200 Droplet Reader and analysed using QuantaSoft Software (Bio-Rad, Hercules, CA, USA). […]"}, "[3]": {"system": "heparanase (HPSE) expression in kidney transplant lymphoid cells", "experiment": "Heparanase expression (ddPCR, fractional abundance of cDNA) in lymphoid cells from kidney transplants", "type": "in vivo, rat", "details": "Cast 150 mg/kg minus Non-Treated; day 6 after transplantation", "method": "RNA was manually extracted using the RNeasy Plus Mini Kit as per the manufacturer's instructions (Qiagen, Hilden, Germany). […] The quality of the RNA was measured using the Nanodrop 2000 (ThermoFisher Scientific, MA, USA) and quantified using the Qubit 2.0 Fluorometer (Invitrogen, MA, USA), RNA was stored at −800 C. […]"}, "[4]": {"system": "serum heparan sulphate", "experiment": "ELISA assay for serum heparan sulphate after renal allotransplantation", "type": "in vivo, rat", "details": "combined days 2, 4, 6", "procedure": "as §1, §2\nSerum samples, separated from whole blood were aliquoted and stored at −80° C. […] Absorbance was immediately measured at 450 nm on a Versa Max Microplate Reader (Molecular Devices, Sunnyvale, California, USA) and the results calculated in ng/ml according to the internal standard curve. […]"}, "[5]": {"system": "heart allograft (PVG donor, DA recipient)", "experiment": "Rat heterotopic cardiac transplantation: heart allograft survival", "type": "in vivo", "details": "for heart allograft survival times, mean / heart allograft survival times, median: PVG-DA allograft", "procedure": "Inbred rat strains PVG (RT1c) (donor) and DA (RT1a) (recipient) used for heart and renal transplantation were housed under standard conditions. All procedures were approved and audited by an Animal Care and Ethics Committee in Australia.\nHeterotopic cardiac transplants were done using a standard technique (10). Cardiac function was assessed daily by abdominal palpation. The end point of cardiac transplant survival was defined as the last day of palpable heart beating. Care of all rats in this study complied with the Animal Research Act 1985 (NSW, Australia). The protocols were designed to minimise pain and discomfort to the animals. Animals were acclimatised to laboratory conditions (22° C., 12 h cycle of light and dark, 50% humidity, ad libitum access to food and water) for a minimum of 1 wk. prior to experimentation. Intragastric gavage administration was carried out with conscious animals, using curved gavage needles appropriate for animal size (250-300 gm body weight: Gauge 16, 100 mm). All transplanted rats were given post-operative analgesia (Carprofen 4 mg/kg every 12-24 h subcutaneously). They were euthanized by approved carbon dioxide asphyxiation when the heart stopped beating prior to tissue procurement.\nas §3\nCastanospermine was administered by Alzet osmotic pumps (Alza Corporation, Palo Alto, United States) at an immunosuppressive dose of 150 mg/kg per day. OGT 2115 treatment started on the first post operative day and the Castanospermine treatment started on the day of the transplant.\nAn experiment was conducted comparing heart allograft survival in 6 groups of inbred rats.\nThese tests were assessed using the Wilcoxon rank sum test procedure. The mean, median, min, max and the first and third quartiles are presented for each group, as well as the estimated difference in location parameters with 95% confidence intervals. The difference in location parameters is the median of the difference between a sample from the first group and a sample from the second group."}, "[6]": {"system": "pancreatic islet allografts", "details": "no IRI control, cited from earlier work"}, "[7]": {"system": "ischaemia reperfusion injury", "details": "reference (2); cited from earlier work"}, "[8]": {"details": "Castanospermine (150 mg/kg per day) v Isograft"}, "[9]": {"details": "Non-treated v Castanospermine (150 mg/kg per day)"}, "[10]": {"details": "Group 4: OGT 2115 2.5 mg/kg subcutaneously"}, "[11]": {"details": "Group 5: OGT 2115 5 mg/kg subcutaneously"}, "[12]": {"details": "Group 6: 10 mg/Kg, Wilcoxon difference in location"}, "[13]": {"details": "Group 6: OGT 2115 10 mg/kg subcutaneously"}}}
{"compound": "O[C@H]1[C@H](O)[C@@H](O)CN2CC[C@H](O)[C@H]12", "note": "[Castanospermine]", "values": [{"measurement": "H-score for heparan sulphate, estimate of difference", "setting": "[1]; [8]", "result": "−3.08"}, {"measurement": "H-score for heparan sulphate, estimate of difference", "setting": "[1]; [9]", "result": 34.78}, {"measurement": "breakdown of HSPG (in words)", "setting": "[1]; in both the allotransplant and the serum from allotransplanted rats, 150 mg/kg per day", "result": "effectively stops the breakdown of HSPG"}, {"measurement": "Estimated mean difference in heparanase levels (percent heparanase cDNA), peripheral blood samples", "setting": "[2]; Cast 150 mg/kg minus Non-Treated", "result": 22.1, "unit": "%"}, {"measurement": "Estimated mean difference in heparanase levels (percent heparanase cDNA), kidney samples", "setting": "[3]", "result": "−31.0", "unit": "%"}, {"measurement": "serum heparan sulphate levels, ratio of estimate of difference", "setting": "[4]; [8]", "result": 1.05}, {"measurement": "serum heparan sulphate levels, ratio of estimate of difference", "setting": "[4]; [9]", "result": 1.72}]}
{"compound": "O=C(O)Cc1ccc2oc(-c3ccc(NC(=O)/C=C/c4ccc(Br)cc4)c(F)c3)nc2c1", "note": "[OGT 2115]", "values": [{"measurement": "survival of the heart allotransplant grafts (in words)", "setting": "[5]; 2.5, 5 and 10 mg/Kg, Table 2 and FIG. 1", "result": "prolonged the survival"}, {"measurement": "heart allograft survival times, mean", "setting": "[5]; [10]", "result": 7.40, "unit": "days"}, {"measurement": "heart allograft survival times, median", "setting": "[5]; [10]", "result": 8, "unit": "days"}, {"measurement": "heart allograft survival times, mean", "setting": "[5]; [11]", "result": 7.33, "unit": "days"}, {"measurement": "heart allograft survival times, median", "setting": "[5]; [11]", "result": 7, "unit": "days"}, {"measurement": "estimated increase in survival compared to DMSO", "setting": "[5]; [12]", "result": 3, "unit": "days"}, {"measurement": "estimated increase in survival compared to Non-treated PVG-DA", "setting": "[5]; [12]", "result": 2, "unit": "days"}, {"measurement": "heart allograft survival times, mean", "setting": "[5]; [13]", "result": 9.18, "unit": "days"}, {"measurement": "heart allograft survival times, median", "setting": "[5]; [13]", "result": 9, "unit": "days"}, {"measurement": "Estimated mean difference in heparanase levels (percent heparanase cDNA), peripheral blood samples", "setting": "[2]; OGT 2115 10 mg/kg minus Isograft", "result": 17.0, "unit": "%"}, {"measurement": "Estimated mean difference in heparanase levels (percent heparanase cDNA), peripheral blood samples", "setting": "[2]; OGT 2115 10 mg/kg minus Non-Treated", "result": 35.9, "unit": "%"}]}
{"compound": "PI 88", "values": [{"measurement": "rejection of islet allografts (in words)", "setting": "[6]; WO 2008/046162, example 8 and FIG. 10", "result": "curtails rejection of islet allografts"}, {"measurement": "survivals of pancreatic islet allografts (in words)", "setting": "[6]; WO 2011/109877, Example 7 and FIG. 15", "result": "prolonged"}]}
{"compound": "Roneparstat", "values": [{"measurement": "ischaemia reperfusion injury (in words)", "setting": "[7]", "result": "curtail ischaemia reperfusion injury"}]}
